Source: US12350317B2, “Immunotherapy for the treatment and prevention of inflammatory bowel disease” (THE UAB RESEARCH FOUNDATION, priority 2019, dated 2025)

Key:
[1] = test system: CBir1Tg CD4+CD44+ TM cells; test: CBir1Tg CD4+ TM cells co-cultured with APCs and MEP1 in vitro; type: cell-based, mouse
Protocol: (§3) (A) CBir1Tg CD4^+CD44^+ TM cells were isolated from the spleen, labeled with CFSE, and co-cultured with irradiated APCs isolated from C57BL/6 mice in the presence of 1 μg/ml of MEP1, and 100 nM rapamycin, 1 mM metformin, or both. Absolute numbers of live and proliferating CD4^+ T cells post 90 hrs of culturing are shown respectively. OVA p323-339 stimulation was used as negative control. (B) Strategy of adoptive transfer, immunization, and ablation of donor CD4^+ TM cells. […] Mice without challenge and mice treated with 0.2% CMC post challenge were used as controls. Lymphocytes were isolated from the spleen on Day 42 and analyzed with FACS. Representative plots of donor/host CD4^+, donor CD4^+ TM, Treg, and Tfh are shown in (C), whereas statistics of corresponding absolute numbers are shown in (D-G).
(§4) This was tested in vivo by targeting established microbiota antigen-specific CD4+ TM cells in the periphery. […] Upon antigen challenge, on days 28 and 35, recipient mice were treated with metformin, rapamycin, the combination of both, or drug vehicle for 5 consecutive days, respectively. Recipient mice with immunization but no antigen challenge were used as controls (FIG. 10B). Assessed by the absolute numbers recovered from the spleen.

[2] = test system: donor CBir1Tg CD4+ TM cells; test: Ablation of pre-existing antigen-specific CD4+ TM cells in C57BL/6 mice upon MEP1 challenge; type: in vivo, mouse; conditions: rapamycin 1 μg/g/day, metformin 150 μg/g/day i.p. 5 days after MEP1 challenge days 28 and 35; day 42
Protocol: as §3, §4

[3] = test system: ribosomal protein S6 kinase; test: S6K phosphorylation in flagellin-specific CD4+ T cells from Crohn's patients; type: cell-based, human; conditions: re-stimulation with pooled flagellin
Protocol: (§5) Microbiota flagellin-specific CD4^+ T cells were labeled with proliferation dye and re-stimulated with autologous APCs plus Fla mix in the presence of 50 nM rapamycin, 1 mM metformin, or both. Phosphorylation of S6K was examined after 6 hours of stimulation (H and K), whereas CD4^+ T cell survival (I and L) and proliferation (J and M) were examined after 6-7 days.
(§6) Therefore, in order to target the metabolism of both naïve and memory CD4+ subsets, rapamycin, metformin, or both were tested, for their inhibitory effects on these cells post expansion.
Therefore, in order to target the metabolism of both naïve and memory CD4^+ subsets, rapamycin, metformin, or both, were tested for their inhibitory effects on these cells post expansion.

[4] = test system: microbiota flagellin-specific CD4+ T cells; test: Survival, proliferation and cytokine production of flagellin-specific CD4+ T cells from Crohn's patients; conditions: for Cytokine production (IFNγ, TNFα and IL-17A) upon re-stimulation: 6-7 hours re-stimulation with APCs and Fla mix
Protocol: as §5
Expanded CD154^+ antigen-specific CD4^+ T cells were re-stimulated with autologous APCs and Fla mix, Fla mix with rapamycin, Fla mix with metformin, or Fla mix with rapamycin and metformin for 6-7 hours, with BFA added for the last 4 hours. CD4^+ T cells stimulated with CD3/CD28 beads were used as a positive control, whereas cells with no antigen added were used as a negative control. The cells were then stained for cytokines (TNF and IL-17A), activation of mTOR via the downstream marker phospho-S6K and analyzed by flow cytometry.
as §6

[5] = test system: S6 kinase (S6K); test: S6K phosphorylation in naive CBir1Tg CD4+ T cells co-cultured with APCs and MEP1; type: cell-based, mouse; conditions: 100 nM rapamycin, APCs and MEP1, 20 hrs
Protocol: (§1) CBir1Tg CD4^+CD44-naïve T cells were isolated from the spleen and co-cultured with irradiated antigen-presenting-cells (APCs) isolated from C57BL/6 mice, in the presence of 1 μg/ml of MEP1 with (blue) or without (red) 100 nM rapamycin. Phosphorylation of S6K in CBir1Tg CD4^+ T cells was examined after 20 hrs of stimulation. CBir1Tg CD4^+ T cell viability, uptake of fluorescent glucose analog 2-NBDG, proliferation, and Treg induction were determined with FACS after 90 hrs of co-culture. OVA p323-339 stimulation was used as a negative control (grey). Representative flow plots are shown in (A-D, and I), and statistics of 3 replicated experiments are shown in (E-H, and J). For in vitro and in vivo suppression assays, naïve CD4+ cells were isolated from CBir1Tg·Foxp3gfp spleen and cultured with MEP1 and rapamycin for 6 days for Treg induction. Then live CD4^+CD25^+GFP^+ Treg cells were sorted with flow cytometry as CBir1Tg iTreg Rapa. Live CD4^+CD25^+GFP^+ cells freshly isolated from naïve CBir1Tg·Foxp3gfp spleen were used as control (CBir1Tg tTreg) for suppression assay in vitro. CFSE labeled responder CD4+CD44-(Tn) cells were isolated from congenic CBir1Tg or C57BL/6 mouse and co-cultured with indicated ratios of CBir1Tg Treg cells in the presence of 1 μg/ml MEP1 or anti-mouse-CD3 and APCs for 3.5 days. […]

[6] = test system: CBir1Tg CD4+CD44- naive T cells; test: Naive CBir1Tg CD4+ T cell glucose uptake, viability, proliferation and Treg induction in vitro; type: cell-based, mouse
Protocol: as §1, with “CBir1Tg CD4^+ T cell viability, uptake of fluorescent glucose analog 2-NBDG, proliferation, and Treg induction were determined with FACS after 90 hrs of co-culture.” left out, “days. Representative graphs of antigen-specific and bystander suppression are shown in (K and M), respectively, and accumulated percentage of suppression are shown in (L and N).” for “days.”

[7] = molecular target: DR0701 (HLA-DR7); test: Flagellin peptide binding to HLA-DR (DR0701); design: species or system human; conditions: <20 = high affinity, 20-100 moderate affinity
Text: (§2) CD4+ T cell effectors mediate colitis in mouse models. These effectors, for example, Th1 and Th17 are short-lived. The CD4+ T cell memory pool is a reservoir of chronicity and regenerating T effector cells. CD4+ TM cells are widely distributed in CBir1 TCR Tg mice (FIG. 1). Flagellin specific T cells can cause murine colitis, mainly Th17 mediated. Anti-CBir1 was detected in 50% of Crohn's patients and in multiple mouse models. The presence of anti-Cbir1 in CD patients is associated with small bowel (SB) involvement, fibrostenosis and internal perforating phenotypes, independent of anti-Saccharomyces cerevisiae antibodies (ASCA), anti-[…] antibodies and anti-OmpC antibodies. A subset of Crohn's patients has broad IgG reactivity to microbiota flagellins (FIG. 2). Flagellins have promiscuous T cell receptor epitopes. Therefore, whether microbiota flagellins contain epitope peptides that are broadly reactive in humans and can stimulate both TM and Tregs across a population of patients with Crohn's disease was studied. Peptides predicted to bind to 8 or more HLA-DRB1 molecules and to mouse H-2^b or H-2^d were studied. Thirty predicted flagellin epitopes were tested for binding to the four most common HLA-DR dimers (HLA-DR3, HLA-DR7, HLA-DR11 and HLA-DR15). All predicted flagellin epitopes bound at least one of the four HLA-DR dimers, and twenty of the predicted epitopes bound two or more.

[8] = molecular target: DR1501 (HLA-DR15) (Homo sapiens, UniProt P01903+P01911); test: Flagellin peptide binding to HLA-DR (DR1501); conditions: <20 = high affinity, 20-100 moderate affinity
Text: as §2

[9] = molecular target: DR1101 (HLA-DR11) (Homo sapiens, UniProt P01903+P01911, A100R/A169T/A87E/I96F/K41T/L162R/M171V/P40S/Q125H/Q178H/Q39Y/Q99D/R42S/S66Y/T262R/V115G/W38E); test: Flagellin peptide binding to HLA-DR (DR1101); conditions: <20 = high affinity, 20-100 moderate affinity
Text: as §2

DR1101 (HLA-DR11), sequence (P01903 26-254, other chains not shown): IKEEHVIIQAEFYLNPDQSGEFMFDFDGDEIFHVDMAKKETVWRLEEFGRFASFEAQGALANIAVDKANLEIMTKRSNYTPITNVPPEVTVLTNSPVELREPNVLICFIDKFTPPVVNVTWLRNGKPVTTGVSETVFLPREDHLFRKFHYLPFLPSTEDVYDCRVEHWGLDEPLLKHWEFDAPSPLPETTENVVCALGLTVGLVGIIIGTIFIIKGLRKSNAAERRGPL

CN(C)C(=N)N=C(N)N [metformin]
Cell death / survival and inhibition of cell proliferation of CD4+ TM cells [1]: comparable effect, or even worse, than rapamycin | Expansion of CBir1Tg CD4+ cells after antigen challenge (absolute numbers in spleen) [2]: no inhibitory result | Inhibitory effect on the mTOR pathway ([3]; 1 mM metformin alone): no inhibitory effect | Cell death ([4]; 50 nM rapamycin or 1 mM metformin, 6-7 days): lesser extent of increased cell death | Cell proliferation ([4]; 50 nM rapamycin, 1 mM metformin, or both, 6-7 days): decreased proliferation | Cytokine production (IFNγ, TNFα and IL-17A) upon re-stimulation [4]: neither rapamycin or metformin treatment altered the cytokine production

CO[C@H]1C[C@@H]2CC[C@@H](C)[C@@](O)(O2)C(=O)C(=O)N2CCCC[C@H]2C(=O)O[C@H]([C@H](C)C[C@@H]2CC[C@@H](O)[C@H](OC)C2)CC(=O)[C@H](C)/C=C(\C)[C@@H](O)[C@@H](OC)C(=O)[C@H](C)C[C@H](C)/C=C/C=C/C=C/1C [rapamycin]
Reduction of phosphorylation of S6 kinase (S6K) [5]: roughly 60% | Reduction of cell proliferation ([6]; 100 nM rapamycin, in presence of cognate antigen MEP1, 90 hrs): roughly 10 fold | Increase of Treg cells in percentage ([6]; MEP1 and rapamycin vs MEP1 alone): 20 fold | Reduction of phosphorylation of S6K compared to antigen alone ([3]; 50 nM rapamycin, 6 hours): ~50% | Cytokine production (IFNγ, TNFα and IL-17A) upon re-stimulation [4]: no effect

MATEMVKYSNANILSQAGQ [CBir1 p456-475]
EC50 Ratio [7]: 3.7 | EC50 Ratio [8]: 0.32

MVVQHNLRAMNANRMLGIT [A4 Fla3 p1-19, Lachnospiraceae A4 Fla3 flagellin peptide 1-19]
EC50 Ratio [7]: 2.5 | EC50 Ratio [9]: 0.2 | EC50 Ratio [8]: 0.32

MVVQHNLRAMNSNRMLGITQ [FlaX p1-20, Lachnospiraceae FlaX flagellin peptide 1-20]
EC50 Ratio [8]: 0.33
